According to article PMC13388172 (Frontiers in Pharmacology, 2026):

Assay: Therapeutic drug monitoring of serum ETI components and metabolites (UPLC-MS/MS), hourly for 9 hours after ingestion
Assay type: in vivo
Details: female, human, oral, full dose ETI, one pwCF, sampled hourly for 9 hours after ingestion, read-out: Area under the curve (AUC), serum
Protocol: The analytes of interest were assayed using an ultra-performance liquid chromatography tandem mass spectrometry method. In the concentration range from 0.01 to 20.0 mg/L, calibration curves were linear with a correlation coefficient >0.999 for all analytes.
Repeat TDM was conducted after a month on this reduced dosing strategy as this was felt likely to provide adequate time for steady-state concentrations to be achieved.

AUC: 92600 ng·h/mL
Compound: CC(C)(CO)c1cc2cc(NC(=O)C3(c4ccc5c(c4)OC(F)(F)O5)CC3)c(F)cc2n1C[C@@H](O)CO [tezacaftor]
